Experiments:
human-derived PAI-1 = human-derived PAI-1 (Homo sapiens, UniProt P05121); test: Human plasma clot fibrinolysis test (PAI-1 inhibitory effect); assay type: biochemical; conditions: human plasma clot with t-PA and human-derived PAI-1
Procedure: A human plasma clot fibrinolysis test was performed to evaluate the PAI-1 inhibitory effect of the present compound.
Specifically, human-derived PAI-1 and the present compound were added to a reaction mixture containing t-PA, which dissolves blood clots caused by addition of thrombin to normal human pooled plasma, and the inhibition of the effect of t-PA by PAI-1 (PAI-1 effect) and the removal of the PAI-1 effect by the present compound (PAI-1 inhibition) (fibrinolysis enhancement) were evaluated.

[1] = design: species or system human; conditions: in vivo, po
Procedure: A placebo-controlled single oral dose study was performed to examine the safety and pharmacokinetics upon single oral dose administration of the present compound in healthy Japanese adult males (subjects).
The oral dosages were 30 mg (step 1), 60 mg (step 2), 120 mg (step 3), and 240 mg (step 5) per day, and the food effect was separately examined in administration at a dosage of 60 mg (step 4) (a total of five steps). In steps 1 to 3 and 5, the number of subjects per step was 8 (6 subjects in the present compound administration group and 2 subjects in the placebo group), of which 1 subject of the present compound administration group and 1 subject of the placebo group were used as the preceding group, and 5 subjects of the present compound administration group and 1 subject of the placebo group were used as the following group. The study proceeds to the following group after confirming safety in the preceding group. The transition from one step to the next was made after confirming safety. In step 4, which examines the food effect, the present compound was orally administered to all 6 subjects. […]
After administration of the present compound and the placebo, the following items were evaluated in each subject. […]

[2] = test system: mouse model of bleomycin-induced pulmonary fibrosis; test: Mouse model of bleomycin-induced pulmonary fibrosis; assay type: in vivo
Procedure: The improvement effect of the present compound on pulmonary fibrosis (remodeling after lung damage) was evaluated using a mouse model of bleomycin-induced pulmonary fibrosis. […] Because of similarity of histopathological changes to pulmonary fibrosis in humans, this mouse model is widely used for the evaluation of the drug efficacy.
To a fibrosis mouse model (fibrosis model group) given a single dose of bleomycin (1.2 mg/mL), the present compound (0.75 mg/kg/day) was orally administered for 21 days (present compound administration group, n = 9), and biochemical analysis of the lungs and measurement of clinical conditions of the lungs were performed on day 22. For comparison, instead of the present compound, the solvent used to dissolve the present compound was administered to a fibrosis model group in the same manner (vehicle group, n = 10), and biochemical analysis and measurement of clinical conditions of the lungs were performed. As a positive control group, a dexamethasone administration group (0.25 mg/kg administration, n = 9) was used. The biochemical analysis was performed using lung hydroxyproline values as an index. The clinical conditions of the lungs were evaluated by performing Masson’s trichrome staining and calculating Ashcroft scores according to a report of Ashcroft et al. (Ashcroft T et al., J Clin Pathol, 1988; 41:467). The clinical conditions were confirmed by comparing a normal mouse group (normal group, n = 10) with the vehicle group (n = 10), and the improvement effect of the present compound on pulmonary fibrosis was evaluated by comparing the vehicle group (n = 10) with the present compound administration group (n = 9). Differences between the mean values of the groups were tested by the Bonferroni selected pairs test using Prism 4 (GraphPad Software).
Table 1 and FIG. 3(A) and FIG. 3(B) show the results of comparisons of the lung hydroxyproline values and the Ashcroft scores in the groups. The mean values of the groups are expressed as mean±SD, and examination was performed at a 5% significance level.

[3] = human, in vivo
Procedure: A placebo-controlled repeated oral dose study was performed to examine the safety, pharmacokinetics, and pharmacodynamics of the present compound during repeated oral dose administration in healthy Japanese adult males (subjects).
The oral dosages were 60 mg (step 1) and 120 mg (step 2) per day, and the number of subjects per step was 9 (6 subjects in the present compound group and 3 subjects in the placebo group). The transition from one step to the next was made after confirming safety. The present compound or the placebo was orally administered once daily after breakfast for 7 days.
After administration of the present compound and the placebo, the following items were evaluated in each subject. Safety: vital signs (axillary temperature, blood pressure while seated, and pulse rate while seated), 12-lead electrocardiogram, laboratory tests (hematological test, blood biochemical test, blood coagulation test, urinalysis, and fecal test), and adverse events • Pharmacokinetics: plasma concentration of the unchanged drug and metabolite concentration • Pharmacological activities: PAI-1 activity and t-PA activity

[4] = day 22, present compound 0.75 mg/kg/day oral 21 days, dexamethasone 0.25 mg/kg, mean±SD

Chain of human-derived PAI-1 (P05121 24-402): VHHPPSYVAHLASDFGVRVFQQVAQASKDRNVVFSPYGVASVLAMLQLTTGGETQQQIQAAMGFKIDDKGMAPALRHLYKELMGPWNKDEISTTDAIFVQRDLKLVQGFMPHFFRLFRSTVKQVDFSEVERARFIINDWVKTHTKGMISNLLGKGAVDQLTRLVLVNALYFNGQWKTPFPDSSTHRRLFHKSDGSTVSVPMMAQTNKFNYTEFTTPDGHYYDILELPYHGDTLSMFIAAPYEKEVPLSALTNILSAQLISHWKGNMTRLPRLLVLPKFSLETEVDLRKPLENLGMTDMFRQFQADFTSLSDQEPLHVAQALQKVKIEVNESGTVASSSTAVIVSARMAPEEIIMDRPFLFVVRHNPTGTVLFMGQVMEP

Question: With `O=C(Nc1ccc(Cl)cc1C(=O)[O-])c1cccc(-c2cccc3cccnc23)c1.[Na+]` [present compound, sodium 5-chloro-2-({ [3-(quinolin-8-yl)phenyl]carbonyl}amino)benzoate] as the compound, how does the “concentration with PAI-1 inhibitory effect (fibrinolysis enhancement effect)” value (human-derived PAI-1) read?
Answer: ≥ 10 µM

Question: And the AUC versus dosage [1]?
Answer: linearity

Question: What about the “Ashcroft score compared with vehicle group” value ([2]; 5% significance level) of the same compound?
Answer: significantly lower

Question: What about the “lung hydroxyproline value compared with vehicle group” value ([2]; 5% significance level) of the same compound?
Answer: significantly lower

Question: What about the Ashcroft score [2, 4] of the same compound?
Answer: 2.2±0.3

Question: And the Lung hydroxyproline value [2, 4]?
Answer: 58.7±10.1 µg/left lung

Question: What about the “AUC on day 7 compared with day 1” value [3] of the same compound?
Answer: increased

Question: What about the “Tmax, t½ 0-24h, and Cmax′” value [3] of the same compound?
Answer: not affected by repeated administration
